US20240150301A1, “METHODS OF MODULATING ANDROGEN RECEPTOR CONDENSATES” (ETERN BIOPHARMA (SHANGHAI) CO., LTD., priority 2021, published 2024)

Columns and labels:
[1] = system: LNCaP cells; test: Cell proliferation assay (CellTiter-Glo), LNCaP; assay type: cell-based; conditions: Homo sapiens, 96 h, 0.2 nM DHT, 4 days, read-out: LNCaP IC50 AR-positive (cell proliferation)
Description: (§1) To evaluate the effect of exemplary compounds on proliferation of AR/AR-V7-dependent prostate cancer cells, cell viability assay was performed in LNCaP (AR-positive), 22Rv1 (AR-positive; AR-V7 positive), VCaP (AR-positive; AR-V7 positive), and DU145 (AR-negative) cells, respectively.
(§2) LNCaP cells were seeded in charcoal stripped FBS/phenol red-free RPMI medium in 96-well plates for 24 h before pretreating for 1 h with test compounds prior to addition of 0.2 nM DHT for 4 days. 22Rv1 or VCaP cells were cultured in charcoal stripped FBS/phenol red-free RPMI medium for 24 h before addition of test compounds for 4 days. DU145 cells were seeded in complete medium for 24 h before addition of test compounds for 4 days. Cell proliferation was measured with CellTiter-Glo® Luminescent Cell Viability Assay (Promega). In LNCaP cells, DHT-dependent cell growth is calculated by measuring the difference between vehicle control (DMSO) cells treated with or without 0.2 nM DHT. The IC50 values were determined using the four parameter fit via GraphPad Prism graphing software.

[2] = system: 22Rv1 cells; test: Cell proliferation assay (CellTiter-Glo), 22Rv1; assay type: cell-based; conditions: Homo sapiens, 22Rv1, 96 h; 4 days; read-out: 22Rv1 IC50 AR-positive; AR-V7 positive (cell proliferation)
Description: as §1, §2

[3] = system: DU145 cells; test: Cell proliferation assay (CellTiter-Glo), DU145; assay type: cell-based; conditions: Homo sapiens, DU-145, 96 h; 4 days; read-out: DU145 IC50 AR-negative (cell proliferation)
Description: as §1, §2

[4] = system: AR or AR-V7 downstream target genes; test: AR/AR-V7 target gene qPCR assay in 22Rv1 cells; assay type: cell-based, human; conditions: 22Rv1, 48 h, RT-qPCR
Description: To evaluate the effect of exemplary compounds on mRNA expression of AR or AR-V7 downstream target genes, real-time quantitative PCR measurements were performed in prostate cancer cell line 22Rv1 expressing both AR and AR-V7.
22Rv1 cells were cultured in charcoal stripped FBS/phenol red-free RPMI medium for 24 h, and then treated with DMSO or test compounds for additional 48 h prior to RT-qPCR. Briefly, RNA was isolated from cells using RNeasy Mini Kit (Qiagen) following the manufacturer's protocol. RNA was reverse transcribed and subjected to qPCR using PowerUp™ SYBR™ Green Master Mix (Applied Biosystems). The relative quantity of the target genes was calculated using the ΔΔCt method by comparing Ct of the target genes and mean Ct of the housekeeping gene GAPDH.

[5] = molecular target: T1, AR V7 (Homo sapiens, UniProt P10275); test: ARE-luciferase reporter assay in HEK293T cells cotransfected with AR-V7; assay type: cell-based; parameters: host or cells: HEK293T; conditions: HEK293T cotransfected with AR-V7, hormone-starved, 24 h; read-out: HEK293T(V7) ARE-luc IC50
T1 sequence (P10275 1-644 isoform P10275-3): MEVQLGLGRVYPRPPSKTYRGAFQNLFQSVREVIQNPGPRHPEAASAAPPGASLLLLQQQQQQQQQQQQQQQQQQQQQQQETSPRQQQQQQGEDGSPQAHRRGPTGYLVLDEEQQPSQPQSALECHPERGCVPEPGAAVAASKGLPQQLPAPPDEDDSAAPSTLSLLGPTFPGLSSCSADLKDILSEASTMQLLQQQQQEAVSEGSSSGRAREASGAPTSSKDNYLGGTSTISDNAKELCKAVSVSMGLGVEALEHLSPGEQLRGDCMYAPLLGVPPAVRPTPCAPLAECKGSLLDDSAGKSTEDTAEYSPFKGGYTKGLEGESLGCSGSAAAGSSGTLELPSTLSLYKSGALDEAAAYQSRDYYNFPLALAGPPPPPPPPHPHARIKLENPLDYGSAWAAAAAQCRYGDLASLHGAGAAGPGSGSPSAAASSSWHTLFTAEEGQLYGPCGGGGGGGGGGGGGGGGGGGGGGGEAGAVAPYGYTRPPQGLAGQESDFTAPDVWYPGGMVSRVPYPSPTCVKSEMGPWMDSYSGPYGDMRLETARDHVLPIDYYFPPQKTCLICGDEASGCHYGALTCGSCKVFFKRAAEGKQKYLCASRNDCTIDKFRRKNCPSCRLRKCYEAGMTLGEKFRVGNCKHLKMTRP
Description: (§3) The ARE-luciferase reporter plasmid contains functional AREs (androgen response elements) to which AR binds in response to androgen to induce luciferase activity. LNCaP (Cobioer) cells were transiently transfected with the ARE-luciferase reporter in charcoal stripped FBS/phenol red-free RPMI medium prior to treatment for 24 hours. Then DMSO or test compounds with serial diluted concentrations were added one hour prior to the addition of DHT(1 nM). After 24 h of incubation with DHT, cells were lysed and luciferase activity was assayed using the ONE-Glo™ Luciferase Assay System (Promega) and measured using EnVision Multimode Plate Reader, according to manufacturer's instructions. Values were normalized to cell viability determined by CellTiter-Glo® Luminescent Cell Viability Assay Kit (Promega). […] GraphPad Prism graphing software was used to calculate IC50 values.
(§4) To evaluate the transcriptional activity of AR-V7, HEK293T(Cobioer) cells were transiently cotransfected with an expression vector for AR-V7 and the ARE-luciferase reporter in hormone-starved conditions. For 22Rv1(Cobioer) prostate cancer cell line, which expresses endogenous AR-V7, ARE-luciferase reporter was transiently transfected in hormone-starved conditions. 24 h after transfection, DMSO or test compounds with serial diluted concentrations were added for additional 24 h incubation. Reporter activity was detected and normalized by cell viability as described above. Treatments were normalized to DMSO control activity, and IC50 values were further determined via GraphPad Prism graphing software.

[6] = molecular target: T1, AR V7; test: ARE-luciferase reporter assay in 22Rv1 cells (endogenous AR-V7); assay type: cell-based; parameters: 22Rv1(Cobioer) prostate cancer cell line, which expresses endogenous AR-V7; host or cells: 22Rv1; conditions: 22Rv1, hormone-starved, 24 h; read-out: 22Rv1 ARE-luc IC50
Description: as §3, §4

| SMILES | IC50 [1] | IC50 [2] | IC50 [3] | mRNA expression of target genes of either AR or AR-V7 [4] | IC50 [5] | IC50 [6] |
| --- | --- | --- | --- | --- | --- | --- |
| CC(C)(c1ccc(OCc2ccnc(N=S3(=O)CCNCC3)n2)cc1)c1cc(Cl)c(OCCCl)c(C#N)c1 [Compound 6, 3-chloro-2-(2-chloroethoxy)-5-(2-(4-((2-((1-oxido-1λ^6-thiomorpholin-1-ylidene)amino)pyrimidin-4-yl)methoxy)phenyl)propan-2-yl)benzonitrile] | 0.86 µM | 3.24 µM | > 20 µM | inhibited mRNA expression | 2.1 µM | 8.6 µM |
| CC(C)(c1ccc(C#Cc2cnc(NS(C)(=O)=O)nc2)cc1)c1cc(Cl)c(OCCCl)c(C#N)c1 [Compound 60, N-(5-((4-(2-(3-chloro-4-(2-chloroethoxy)-5-cyanophenyl)propan-2-yl)phenyl)ethynyl)pyrimidin-2-yl)methanesulfonamide] | – | – | – | – | 8.9 µM | – |
| CC(C)(c1ccc(OCc2ccnc(NS(C)(=O)=O)n2)cc1)c1cc(Cl)c(OCCCl)c(C#N)c1 [Compound AA, N-(4-((4-(2-(3-chloro-4-(2-chloroethoxy)-5-cyanophenyl)propan-2-yl)phenoxy)methyl)pyrimidin-2-yl) methane sulfonamide, reference compound] | 7.01 µM | > 20 µM | 17.2 µM | inhibited mRNA expression | > 20 µM | > 20 µM |
